In series [1] the target is T1, Ba/F3 cells co-expressing full length rTrkA and mNGF (Rattus norvegicus, UniProt P35739).
T1 construct: co-expressing full length rTrkA and mNGF; expressed in transfected cells; host or cells: Ba/F3 murine hematopoietic progenitor cells
The series can be described thus: Ba/F3 cell proliferation, BaF3/TRKA-NGF. The conditions noted are these: inhibition of proliferation, 48 hours, Bright-Glo luminescence. The class given is cell-based.

Series [2] has as its target T2, Ba/F3 cells transformed with human Tel-TrkA (Homo sapiens, UniProt P04629).
T2 construct: expressed in transfected cells; host or cells: luciferase expressing Ba/F3 murine hematopoietic progenitor cell line; the other entry of the earlier key: ETV6 (P41212, Transcription factor ETV6)
The experiment in a line: Ba/F3 cell proliferation, Ba/F3 Tel-TrkA. Format: cell-based. The conditions noted are these: inhibition of proliferation, 48 hours, Bright-Glo luminescence; read-out: Ba/F3Tel-TrkA. As to the method: (§1) Test compounds were dissolved in DMSO (10 mM) and transferred into 1.4 mL flat bottom or V-shaped Matrix tubes carrying a unique 2D matrix chip by individual compound hubs. The numbers of these chips were distinctively linked to the individual compound identification numbers. The stock solutions were stored at −20° C. if not used immediately. For the test procedure the vials were defrosted and identified by a scanner whereby a working sheet is generated that guides the subsequent working steps.
(§2) Compound dilutions were made in 384 well plates. This format enabled the assay of maximally 28 individual test compounds at 11 concentrations (single points) including 2 reference compounds. The dilution protocol included the production of pre-dilution plates, master plates and assay plates: • Compound plates: 30 μL of individual compound (10 mM) DMSO solution including reference compound were transferred into columns 1 and 13 of a 384 well plate. 20 μL of DMSO were added to the rest of the wells and the compounds were serially diluted (1:3) by transferring 10 μL from a well in column 1 or 13 to the next well in column 2 or 14 respectively and successively with the help of a Minitrack robot. • Assay plates: Identical assay plates were then prepared by adding 50 nL each of compound dilutions of the compound plates into 384-well “assay plates”. In the following the compounds were mixed with 50 μL of assays components (cells or enzyme) and tested for their inhibitory activity.
(§3) The cell line used is the luciferase expressing Ba/F3 murine hematopoietic progenitor cell line transformed with human Tel-TrkA, Tel-TrkB or Tel-TrkC cDNAs (Ba/F3 EN A/B/C). These cells maintained in RPMI/10% fetal bovine serum (RPMI/FCS) supplemented with penicillin 50 mg/mL, streptomycin 50 mg/mL and L-glutamine 200 mM. Untransformed Ba/F3 cells were similarly maintained with the addition 5 ng/ml of murine recombinant IL3. 50 μl of a Ba/F3 or Ba/F3 EN A/B/C cell suspension were plated in Greiner 384 well microplates (white)) at a density of 2000 cells per well. 50 nl of serially diluted test compound (10-0.0001 mM in DMSO solution) is added to each well. The cells were incubated for 48 hours at 37° C., 5% CO2. 25 μl of Bright Glo® (Promega) luciferase substrate is added to each well. The emited luminiscence is quantified using ViewLux (PerkinElmer). IC50 values were calculated by linear regression analysis of the percentage inhibition of each compound at 11 concentrations.
In certain examples compounds of Formula (I) have IC50 values from 0.1 nM 1 μM. In other examples, compounds of Formula (I) have IC50 values from 0.0001 μM to 0.8 μM. In other examples, compounds of Formula (I) have IC50 values from 0.0001 μM to 0.6 μM. In other examples, compounds of Formula (I) have IC50 values from 0.0001 μM to 0.4 μM. In other examples, compounds of Formula (I) have IC50 values from 0.0001 μM to 0.2 μM. In other examples, compounds of Formula (I) have IC50 values from 0.0001 μM to 0.1 μM. In other examples, compounds of Formula (I) have IC50 values from 0.0001 μM to 0.08 μM. In other examples, compounds of Formula (I) have IC50 values from 0.0001 μM to 0.06 μM. In other examples, compounds of Formula (I) have IC50 values from 0.0001 μM to 0.04 μM. In other examples, compounds of Formula (I) have IC50 values from 0.0001 μM to 0.02 μM. In other examples, compounds of Formula (I) have IC50 values from 0.0001 μM to 0.01 μM. In other examples, compounds of Formula (I) have IC50 values from 0.01 μM to 1 μM.

Series [3] has as its system parental (untransformed) Ba/F3 cells. The experiment in a line: Ba/F3 cell proliferation, BAF3/WT (parental, IL3). Format: cell-based, murine. The following applies: Mus musculus, inhibition of proliferation of parental cells with IL3, 48 hours, Bright-Glo luminescence. As for the experimental part:
as §1, §2
Compounds were tested for their ability to inhibit the proliferation of wt Ba/F3 cells and Ba/F3 cells transformed with constitutively expressed luciferase reporter and BCR-ABL or Tel-FMS or other Tel fusion kinases (EGFR, JAK2, ALK, BMX, FGFR3, FGFR4, FGR2, FLT1, FLT3, IGF1R, INSR, KDR, KIT, LCK, LYN, MEK, MET, PDGFRα, PDGFRβ, RET, RON, ROS, SRC, SYK, TIE and TYRO) or BRafV600E. Parental Ba/F3 cells were maintained in media containing recombinant mouse IL3 and the kinase transformed Ba/F3 cells were maintained in media without IL-3. 7.5 nl of compounds were spotted to each well of 1536-well assay plates by Liquid handling System Echo 555 (Labcyte). 700 cells were then plated into each well of the assay plates in 7 uL culture media per well and compounds were tested at 0.17 nM to 10 uM in 3-fold serial dilutions. The cells were then incubated for 48 hours at 37° C. 3 uL of Bright-Glo® (Promega) was added to each well and the plates were read using ViewLux (PerkinElmer).
as §3, with “concentrations. […]” for “concentrations.”

pIC50: −log10 of the molar value.

T1 sequence (P35739 33-799): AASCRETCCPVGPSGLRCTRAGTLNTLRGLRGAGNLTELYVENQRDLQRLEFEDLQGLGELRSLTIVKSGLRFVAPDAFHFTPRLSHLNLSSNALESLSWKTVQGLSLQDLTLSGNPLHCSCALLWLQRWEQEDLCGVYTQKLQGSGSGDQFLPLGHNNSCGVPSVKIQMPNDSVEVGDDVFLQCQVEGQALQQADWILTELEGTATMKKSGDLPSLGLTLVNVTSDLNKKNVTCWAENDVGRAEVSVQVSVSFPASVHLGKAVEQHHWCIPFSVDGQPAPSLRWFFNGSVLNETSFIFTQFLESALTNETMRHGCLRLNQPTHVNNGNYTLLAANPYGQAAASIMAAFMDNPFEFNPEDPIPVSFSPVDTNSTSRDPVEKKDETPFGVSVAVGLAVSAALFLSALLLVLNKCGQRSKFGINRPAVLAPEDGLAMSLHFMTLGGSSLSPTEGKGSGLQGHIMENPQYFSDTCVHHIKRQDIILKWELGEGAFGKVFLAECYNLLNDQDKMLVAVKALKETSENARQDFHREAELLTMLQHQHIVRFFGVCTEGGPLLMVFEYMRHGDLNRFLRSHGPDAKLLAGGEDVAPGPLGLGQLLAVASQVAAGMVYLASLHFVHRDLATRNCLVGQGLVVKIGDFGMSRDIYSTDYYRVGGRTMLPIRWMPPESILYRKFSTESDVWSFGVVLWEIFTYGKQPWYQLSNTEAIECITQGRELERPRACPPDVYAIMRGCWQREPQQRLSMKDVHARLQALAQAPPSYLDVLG
T1 sequence (P01139 122-241 partner): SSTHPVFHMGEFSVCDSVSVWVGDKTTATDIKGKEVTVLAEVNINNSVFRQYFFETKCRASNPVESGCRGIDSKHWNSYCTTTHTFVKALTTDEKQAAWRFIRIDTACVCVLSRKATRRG
T2 sequence (P04629 510-796 limits assumed): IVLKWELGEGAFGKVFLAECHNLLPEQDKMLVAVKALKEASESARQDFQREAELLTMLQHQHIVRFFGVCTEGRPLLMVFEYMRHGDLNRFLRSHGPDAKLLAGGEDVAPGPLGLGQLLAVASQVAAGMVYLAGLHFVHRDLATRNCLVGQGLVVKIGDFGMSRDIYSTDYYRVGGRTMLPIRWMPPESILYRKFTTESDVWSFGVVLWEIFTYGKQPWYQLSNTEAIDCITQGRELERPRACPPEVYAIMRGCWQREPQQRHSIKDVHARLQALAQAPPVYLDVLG

Consider `N#Cc1cc(F)cc([C@H]2C[C@H](F)CN2c2ccn3ncc(C(N)=O)c3c2)c1` [Example X-10, 5-((2R,4S)-2-(3-cyano-5-fluorophenyl)-4-fluoropyrrolidin-1-yl)pyrazolo[1,5-a]pyridine-3-carboxamide], for which the melting point is 140 °C (dec.). Besides, the pIC50 in series [1] is 8.10. For the same compound, in series [2], the pIC50 is 8.30. For the same compound, the pIC50 in series [3] was below 5.00.

In the case of `O=C(NCCO)c1cnn2ccc(N3C[C@@H](F)C[C@@H]3c3cccc(F)c3)cc12` [Example X-17, 5-[(2R,4S)-4-fluoro-2-(3-fluorophenyl)pyrrolidin-1-yl]-N-(2-hydroxyethyl)pyrazolo[1,5-a]pyridine-3-carboxamide], the pIC50 in series [1] is 7.85; in series [2], 8.05; in series [3] it was below 5.00.

In the case of `CC(C)NC(=O)c1ccc(F)cc1C1CC(F)(F)CN1c1ccn2ncc(C(N)=O)c2c1` (stereo not shown) [Example X-18, 5-(4,4-difluoro-2-{5-fluoro-2-[(propan-2-yl)carbamoyl]phenyl}pyrrolidin-1-yl)pyrazolo[1,5-a]pyridine-3-carboxamide], the pIC50 is 8.15 in series [1], 8.15 in series [2] and below 5.00 in series [3].

As for `CCOC(=O)c1cnn2ccc(N3C[C@@H](C#N)C[C@@H]3c3cccc(F)c3)cc12` [Example X-19, ethyl 5-((2R,4S)-4-cyano-2-(3-fluorophenyl)pyrrolidin-1-yl)pyrazolo[1,5-a]pyridine-3-carboxylate], the figures for the pIC50 in series [1], in series [2] and in series [3] were 8.15, 8.15 and below 5.00, respectively.

For the compound `CCOC(=O)c1cnn2ccc(N3C[C@@H](C(N)=O)C[C@@H]3c3cccc(F)c3)cc12` [Example X-20, ethyl 5-((2R,4S)-4-carbamoyl-2-(3-fluorophenyl)pyrrolidin-1-yl)pyrazolo[1,5-a]pyridine-3-carboxylate], the pIC50 in series [1] was 8.70; in series [2], 8.70; in series [3], below 5.00.

As to `O=C(Nc1cnn2ccc(N3C[C@@H](F)C[C@@H]3c3cccc(F)c3)cc12)OCc1ccccc1` [Example X-21, benzyl (5-((2R,4S)-4-fluoro-2-(3-fluorophenyl)pyrrolidin-1-yl)pyrazolo[1,5-a]pyridin-3-yl)carbamate], the pIC50 in series [1] is 6.75; in series [2] it was 6.75; in series [3] it was below 5.00.

In the case of `O=C(Nc1ccccc1)c1cnn2ccc(N3C[C@@H](F)C[C@@H]3c3cccc(F)c3)cc12` [Example X-22, 5-[(2R,4S)-4-fluoro-2-(3-fluorophenyl)pyrrolidin-1-yl]-N-phenylpyrazolo[1,5-a]pyridine-3-carboxamide], the figures for the pIC50 in series [1], in series [2] and in series [3] were 7.77, 7.96 and below 5.00, respectively.

`NC(=O)Nc1cnn2ccc(N3C[C@@H](F)C[C@@H]3c3cccc(F)c3)cc12` [Example X-23, 1-(5-((2R,4S)-4-fluoro-2-(3-fluorophenyl)pyrrolidin-1-yl)pyrazolo[1,5-a]pyridin-3-yl)urea]: the pIC50 in series [1] was 6.75; in series [2] it was 6.81; in series [3], below 5.00.

With `NC(=O)c1cnn2ccc(N3C[C@H](O)C[C@@H]3c3cccc(F)c3)cc12` [Example X-24, 5-[(2R,4R)-2-(3-fluorophenyl)-4-hydroxypyrrolidin-1-yl]pyrazolo[1,5-a]pyridine-3-carboxamide], the pIC50 in series [1] is 6.92; in series [2] it was 6.40; in series [3], below 5.00.

Consider `N#C[C@H]1C[C@H](c2cccc(F)c2)N(c2ccn3ncc(C(N)=O)c3c2)C1` [Example X-25, 5-((2R,4S)-4-cyano-2-(3-fluorophenyl)pyrrolidin-1-yl)pyrazolo[1,5-a]pyridine-3-carboxamide], for which the values for the pIC50 in series [1], in series [2] and in series [3] were 7.24, 6.90 and below 5.00, respectively.

As to `NC(=O)c1cnn2ccc(N3C[C@@H](C(N)=O)C[C@@H]3c3cccc(F)c3)cc12` [Example X-26, 5-((2R,4S)-4-carbamoyl-2-(3-fluorophenyl)pyrrolidin-1-yl)pyrazolo[1,5-a]pyridine-3-carboxamide], the results for the pIC50 in series [1], in series [2] and in series [3] were 6.63, 6.35 and below 5.00, respectively.

As to `N#Cc1cc(F)cc([C@@H]2C[C@H](F)CN2c2ccn3ncc(C(N)=O)c3c2)c1` [Example X-27], the pIC50 in series [1], in series [2] and in series [3] was below 5.00 throughout.

As to `Cc1ccc(C)c(C2CCCN2c2ccn3ncc(C(N)=O)c3c2)c1` (stereo not shown) [Example X-28], the pIC50 is 5.96 in series [1], 5.67 in series [2] and below 5.00 in series [3].

Turning to `CN1CCN(c2ccn3ncc(C(N)=O)c3c2)C(c2ccccc2)C1` (stereo not shown) [Example X-29], the pIC50 in series [1], in series [2] and in series [3] was below 5.00 in each case.

These data come from patent US9102671B2, “Compounds and compositions as TRK inhibitors” (Novartis AG, priority 2011, dated 2015).
